# Results as given in BindingDB's records for doi:10.3109/14756366.2010.482047 (Academy of Sciences of The Czech Republic, 2011).
# Target: T1, Cytosol aminopeptidase [33-68,L62W] (Sus scrofa, UniProt P28839, L62W)
# T1 construct: 33-68
# Assay: Kinetic Inhibition Assay
# Conditions: pH 8.4; 25 °C
# Description: LAP was assayed in 75 mM triethanolamine hydrochloride buffer (pH = 8.4, containing 5 mM MgCl2) at 25°C. The substrate (L-leucine-p-nitroanilide) was dissolved in DMSO and added to the assay buffer followed by the enzyme. The hydrolysis of the substrate was monitored by the change in absorbance measured at 405 nm. All the inhibitor solutions were prepared in the assay buffer. The assay solution, which contained 0.05 mL of the substrate solution (0.2, 0.4, 0.6, 0.8, 1 mM final concentrations), 0.25 mL of an inhibitor solution (concentration dependent on the inhibitor), the enzyme solution (20 μg/ml final concentration) and adjusted to a 1 mL final volume.
# T1 sequence (P28839 33-68 L62W): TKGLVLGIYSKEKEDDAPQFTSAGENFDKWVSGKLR
row,Structure (SMILES),Ki [µM]
1,CCCC[C@H](N)P(=O)(O)O [1-aminopentylphosphonic acid],58
2,CSCC[C@H](N)P(=O)(O)O [Met-P (1)],22.6
3,CSCC[C@H](N)[P@H](=O)O [Met-PH (2)],22
4,CSCCC(N)P(=O)(O)CC(C)C(=O)O (configuration not stated) [Met-ψ[P(O)(OH)CH2]-Ala (5)],3.64
5,CCCCC(N)[PH](=O)O (configuration not stated) [Nle-PH (4)],73.9
6,CCCCC(N)P(=O)(O)O[C@@H](C)C(=O)O (stereo partly drawn) [Nle-ψ[P(O)(OH)O]-L-Ala (6)],269
7,CCCCC(N)P(=O)(O)O[C@@H](C)C(=O)OC (stereo partly drawn) [Nle-ψ[P(O)(OH)O]-L-AlaOMe (7)],219
